Our source for the melting point and inhibition values is paper PMC6385122, “Design and Synthesis of Arylamidine Derivatives as Serotonin/Norepinephrine Dual Reuptake Inhibitors” (Molecules, 2019).

Series [1] addresses T1, 5-HT reuptake (5-HT transporter) (Rattus norvegicus, UniProt P31652).
T1 construct: from tissue; host or cells: Wistar rat brain (procerebrum; crude synaptosomal supernatant)
The series can be described thus: Inhibition of 5-HT reuptake in rat brain synaptosome (3H-5-HT uptake). Type of series: biochemical. The note with it: 10 μM, read-out: 5-HT reuptake percent inhibition. On the procedure: (§1) All the target compounds were evaluated for their inhibitory activity against the reuptake of 5-HT and NE at the cellular level. Rat brain tissue was used for the uptake test, which included ^3H-5-HT and ^3H-NE [15]. 1-[7,8-^3H]-Noradrenaline and 5-hydroxy-[^3H]-tryptamine trifluoroacetate were obtained from Amersham Corporation.
(§2) Adult male Wistar rats were used. Animals were killed by decapitation and the whole brain, with the exception of the brainstem and cerebellum, was quickly removed. The procerebrum region was prepared, weighed, and homogenized in 10 volumes of ice-cold 0.32 mol/L sucrose solution using a glass homogenizer. The homogenate was centrifuged at 1000× g and 4 °C for 10 min. The supernatant was decanted and used for the uptake experiments. […] For each assay, three tubes were incubated with the vehicle (20 µL) at 0 °C in an ice bath. After incubation, the tubes were immediately filtered with a cell harvester. The fiberglass filter membrane was washed three times with ice-cold saline, placed in a scintillation vial, and counted in liquid scintillation cocktail (4 mL). Active uptake was the difference between the counts per minute at 37 and 0 °C. The percent inhibition at each drug concentration was the mean of three measurements.

Series [2] has as its target T2, NE reuptake (NE transporter) (Rattus norvegicus, UniProt Q63380).
T2 construct: from tissue; host or cells: Wistar rat brain (procerebrum; crude synaptosomal supernatant)
The series is described as follows: Inhibition of NE reuptake in rat brain synaptosome (3H-NE uptake). The class given is biochemical. As to conditions: 10 μM, read-out: NE reuptake percent inhibition. The procedure:
as §1, §2

Molecules are shown by their SMILES. Where a name gives a salt, the structure may show the parent alone.

T2 sequence (Q63380 1-617): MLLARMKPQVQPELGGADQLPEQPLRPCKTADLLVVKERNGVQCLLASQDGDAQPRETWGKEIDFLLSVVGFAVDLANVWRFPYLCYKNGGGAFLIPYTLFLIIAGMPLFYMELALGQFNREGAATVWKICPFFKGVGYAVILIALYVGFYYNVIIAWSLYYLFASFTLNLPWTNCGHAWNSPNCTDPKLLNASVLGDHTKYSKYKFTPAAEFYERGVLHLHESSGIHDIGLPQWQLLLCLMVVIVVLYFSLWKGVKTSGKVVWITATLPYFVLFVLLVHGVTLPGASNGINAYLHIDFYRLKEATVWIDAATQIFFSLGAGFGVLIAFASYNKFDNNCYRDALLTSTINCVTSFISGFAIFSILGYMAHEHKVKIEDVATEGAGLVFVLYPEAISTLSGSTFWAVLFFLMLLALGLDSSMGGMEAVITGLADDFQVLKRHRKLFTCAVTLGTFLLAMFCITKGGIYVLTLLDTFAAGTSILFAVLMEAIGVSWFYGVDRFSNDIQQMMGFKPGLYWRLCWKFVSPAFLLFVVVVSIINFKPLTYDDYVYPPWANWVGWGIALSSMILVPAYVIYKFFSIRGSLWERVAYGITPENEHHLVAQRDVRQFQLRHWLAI
T1 sequence (P31652 whole entry): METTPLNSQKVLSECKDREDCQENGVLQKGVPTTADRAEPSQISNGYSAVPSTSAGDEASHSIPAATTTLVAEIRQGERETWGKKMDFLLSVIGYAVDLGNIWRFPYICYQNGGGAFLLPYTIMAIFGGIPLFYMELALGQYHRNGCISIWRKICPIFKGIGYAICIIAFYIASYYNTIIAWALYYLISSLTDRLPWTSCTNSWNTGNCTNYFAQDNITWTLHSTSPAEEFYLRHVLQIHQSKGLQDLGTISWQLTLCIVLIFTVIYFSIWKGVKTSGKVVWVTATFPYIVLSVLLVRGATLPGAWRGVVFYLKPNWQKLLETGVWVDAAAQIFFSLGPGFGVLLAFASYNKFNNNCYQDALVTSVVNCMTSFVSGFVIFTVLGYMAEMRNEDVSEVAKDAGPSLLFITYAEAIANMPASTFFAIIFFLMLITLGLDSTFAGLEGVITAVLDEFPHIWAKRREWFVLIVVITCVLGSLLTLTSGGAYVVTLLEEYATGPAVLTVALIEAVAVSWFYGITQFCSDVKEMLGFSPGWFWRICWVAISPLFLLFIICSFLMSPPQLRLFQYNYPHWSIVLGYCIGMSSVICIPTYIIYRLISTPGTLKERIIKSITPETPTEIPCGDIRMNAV

On to `O=[N+]([O-])c1ccc(/C(=N\Cc2ccccc2)N2CCNCC2)cc1` (as salt: hydrochloride) [Compound I-2, (E)-N-((4-Nitrophenyl)(piperazin-1-yl)methylene)-1-phenylmethanaminehydrochloride], for which the melting point (commonly the temperature, or range, at which the solid turns liquid) lay in the range of 230 to 231 °C.
`Clc1ccccc1/C(=N\Cc1ccccc1)N1CCNCC1` (as salt: hydrochloride) [Compound I-3, (E)-N-((2-Chlorophenyl)(piperazin-1-yl)methylene)-1-phenylmethanaminehydrochloride] registered a melting point of 142 to 144 °C.
Turning to `O=[N+]([O-])c1ccc(/C(=N\Cc2ccccc2)N2CCNCC2)cc1` [Compound I-2, (E)-N-((4-Nitrophenyl)(piperazin-1-yl)methylene)-1-phenylmethanaminehydrochloride], the inhibition (in general, the drop in the measured response relative to a control, in per cent) at 10 µM in series [1] stood at 38%; in series [2], 66%.
For `Clc1ccccc1/C(=N\Cc1ccccc1)N1CCNCC1` [Compound I-3, (E)-N-((2-Chlorophenyl)(piperazin-1-yl)methylene)-1-phenylmethanaminehydrochloride], the inhibition at 10 µM is 48% in series [1] and 65% in series [2].
On to `Clc1cccc(/C(=N\Cc2ccccc2)N2CCNCC2)c1` [Compound I-4, (E)-N-((3-Chlorophenyl)(piperazin-1-yl)methylene)-1-phenylmethanaminehydrochloride], for which the inhibition at 10 µM is 58% in series [1] and 63% in series [2].
For `Clc1ccc(/C(=N\Cc2ccccc2)N2CCNCC2)cc1` [Compound I-5, (E)-N-((4-Chlorophenyl)(piperazin-1-yl)methylene)-1-phenylmethanaminehydrochloride], the inhibition at 10 µM in series [1] was 47%; in series [2] it was 57%.
Turning to `Fc1ccc(/C(=N\Cc2ccccc2)N2CCNCC2)cc1` [Compound I-6, (E)-N-((4-Fluorophenyl)(piperazin-1-yl)methylene)-1-phenylmethanaminehydrochloride], the inhibition at 10 µM in series [1] amounted to 17%; in series [2], 39%.
Taken in the same sequence, the figures for `Fc1ccccc1/C(=N\Cc1ccccc1)N1CCNCC1` [Compound I-7, (E)-N-((2-Fluorophenyl)(piperazin-1-yl)methylene)-1-phenylmethanaminehydrochloride] were 38% and 35%.
Consider `N#Cc1ccc(/C(=N\Cc2ccccc2)N2CCNCC2)cc1` [Compound I-8, (E)-4-((Benzylimino)(piperazin-1-yl)methyl)benzonitrilehydrochloride], for which the results for the inhibition at 10 µM in series [1] and in series [2] were 54% and 67%, respectively.
The corresponding values for `N#Cc1cccc(/C(=N\Cc2ccccc2)N2CCNCC2)c1` [Compound I-9, (E)-3-((Benzylimino)(piperazin-1-yl)methyl)benzonitrilehydrochloride] are 65% and 51%.
On to `Cc1ccc(/C(=N\Cc2ccccc2)N2CCNCC2)cc1` [Compound I-10, (E)-1-Phenyl-N-(piperazin-1-yl(p-tolyl)methylene)methanaminehydrochloride], for which the inhibition at 10 µM in series [1] worked out at 61%; in series [2], 47%.
Regarding `O=[N+]([O-])c1ccc(/C(=N\Cc2ccccc2)N2CCNCC2)c(Cl)c1` [Compound I-11, (E)-N-((2-Chloro-4-nitrophenyl)(piperazin-1-yl)methylene)-1-phenylmethanaminehydrochloride], the inhibition at 10 µM in series [1] is 50%; in series [2], 49%.
The corresponding values for `O=[N+]([O-])c1ccc(/C(=N\Cc2ccc(Cl)cc2)N2CCNCC2)cc1` [Compound I-12, (E)-1-(4-Chlorophenyl)-N-((4-nitrophenyl)(piperazin-1-yl)methylene)methanaminehydrochloride] are 51% and 81%.
For `Clc1ccc(C/N=C(\c2ccccc2Cl)N2CCNCC2)cc1` [Compound I-13, (E)-1-(4-Chlorophenyl)-N-((2-chlorophenyl)(piperazin-1-yl)methylene)methanaminehydrochloride], the inhibition at 10 µM in series [1] came out at 67%; in series [2], 84%.
As for `Clc1ccc(C/N=C(\c2cccc(Cl)c2)N2CCNCC2)cc1` [Compound I-14, (E)-1-(4-Chlorophenyl)-N-((3-chlorophenyl)(piperazin-1-yl)methylene)methanaminehydrochloride], the results for the inhibition at 10 µM in series [1] and in series [2] were 76% and 60%, respectively.
The corresponding values for `Clc1ccc(C/N=C(\c2ccc(Cl)cc2)N2CCNCC2)cc1` [Compound I-15, (E)-1-(4-Chlorophenyl)-N-((4-chlorophenyl)(piperazin-1-yl)methylene)methanaminehydrochloride] are 48% and 68%.
Consider `Fc1ccc(/C(=N\Cc2ccc(Cl)cc2)N2CCNCC2)cc1` [Compound I-16, (E)-1-(4-Chlorophenyl)-N-((4-fluorophenyl)(piperazin-1-yl)methylene)methanaminehydrochloride], for which the inhibition at 10 µM in series [1] came out at 45%; in series [2] it was 26%.
The corresponding values for `Fc1ccccc1/C(=N\Cc1ccc(Cl)cc1)N1CCNCC1` [Compound I-17, (E)-1-(4-Chlorophenyl)-N-((2-fluorophenyl)(piperazin-1-yl)methylene)methanaminehydrochloride] are 43% and 27%.
On to `N#Cc1ccc(/C(=N\Cc2ccc(Cl)cc2)N2CCNCC2)cc1` [Compound I-18, (E)-1-(4-Chlorophenyl)-N-((4-cyanophenyl)(piperazin-1-yl)methylene)methanaminehydrochloride], for which the inhibition at 10 µM in series [1] worked out at 75%; in series [2], 63%.
Consider `Cc1ccc(/C(=N\Cc2ccc(Cl)cc2)N2CCNCC2)cc1` [Compound I-20, (E)-1-(4-Chlorophenyl)-N-(piperazin-1-yl(p-tolyl)methylene)methanaminehydrochloride], for which the values for the inhibition at 10 µM in series [1] and in series [2] were 72% and 35%, respectively.
`COc1ccc(C/N=C(\c2ccc([N+](=O)[O-])cc2)N2CCNCC2)cc1` [Compound I-21, (E)-1-(4-Methoxyphenyl)-N-((4-nitrophenyl)(piperazin-1-yl)methylene)methanaminehydrochloride]: the inhibition at 10 µM came to 34% in series [1] and 57% in series [2].
With `c1ccc(/C(=N\Cc2cccc3ccccc23)N2CCNCC2)cc1` [II-1, (E)-1-(Naphthalen-1-yl)-N-(phenyl(piperazin-1-yl)methylene)methanaminehydrochloride], the inhibition at 10 µM in series [1] is 80%; in series [2] it was 67%.
Take `O=[N+]([O-])c1ccc(/C(=N\Cc2cccc3ccccc23)N2CCNCC2)cc1` [II-2, (E)-1-(Naphthalen-1-yl)-N-((4-nitrophenyl)(piperazin-1-yl)methylene)methanaminehydrochloride]: the inhibition at 10 µM in series [1] amounted to 57%; in series [2], 52%.
For `Fc1ccc(/C(=N\Cc2cccc3ccccc23)N2CCNCC2)cc1` [II-3, (E)-N-((4-Fluorophenyl)(piperazin-1-yl)methylene)-1-(naphthalen-1-yl)methanaminehydrochloride], the inhibition at 10 µM turned out to be 84% in series [1] and 76% in series [2].
Regarding `Clc1cccc(/C(=N\Cc2cccc3ccccc23)N2CCNCC2)c1` [II-6, (E)-N-((3-Chlorophenyl)(piperazin-1-yl)methylene)-1-(naphthalen-1-yl)methanaminehydrochloride], the inhibition at 10 µM was determined as 65% in series [1] and 75% in series [2].
As for `Clc1ccc(/C(=N\Cc2cccc3ccccc23)N2CCNCC2)cc1` [II-7, (E)-N-((4-Chlorophenyl)(piperazin-1-yl)methylene)-1-(naphthalen-1-yl)methanaminehydrochloride], the inhibition at 10 µM came out at 62% in series [1] and 59% in series [2].
For `N#Cc1ccc(/C(=N\Cc2cccc3ccccc23)N2CCNCC2)cc1` [II-8, (E)-4-(((Naphthalen-1-ylmethyl)imino)(piperazin-1-yl)methyl)benzonitrilehydrochloride], the inhibition at 10 µM was found to be 70% in series [1] and 46% in series [2].
The corresponding values for `N#Cc1cccc(/C(=N\Cc2cccc3ccccc23)N2CCNCC2)c1` [II-9, (E)-3-(((Naphthalen-1-ylmethyl)imino)(piperazin-1-yl)methyl)benzonitrilehydrochloride] are 88% and 54%.
`Cc1ccc(/C(=N\Cc2cccc3ccccc23)N2CCNCC2)cc1` [II-10, (E)-1-(Naphthalen-1-yl)-N-(piperazin-1-yl(p-tolyl)methylene)methanaminehydrochloride]: the inhibition at 10 µM in series [1] was determined as 82%; in series [2], 63%.
As for `O=[N+]([O-])c1cccc2c(/C(=N\Cc3ccccc3)N3CCNCC3)cccc12` [III-1, (E)-N-((5-Nitronaphthalen-1-yl)(piperazin-1-yl)methylene)-1-phenylmethanaminehydrochloride], the figures for the inhibition at 10 µM in series [1] and in series [2] were 73% and 66%, respectively.
